Experiment [1] has as its system endothelial cell permeability in vivo. As to the kind of experiment: Miles assay for vascular permeability. The note with it: rat, 100 μl subdermal injection of 100 μg/ml peptide in PBS, Evans blue i.v. 15 min later; for dye extracted from excised injection sites (optical density of dimethylformamide extracts at 620 nm): 24 h extraction, FIG. 6 and FIG. 8; for accumulation of Evans blue at the injection sites (visual): read 15 min after dye, FIG. 5. Here is the method:
The ability of an agent to modulate cell adhesion may generally be evaluated in vivo by assessing the effect on vascular permeability utilizing the Miles assay (McClure et al., J. Pharmacological& Toxicological Methods 32:49-52, 1994). Briefly, a candidate modulating agent may be dissolved in phosphate buffered saline (PBS) at a concentration of 100 μg/ml. Adult rats may be given 100 μl subdermal injections of each peptide solution into their shaved backs, followed 15 minutes later by a single 250 μl injection of 1% Evans blue dissolved in PBS into their tail veins. The subdermal injection sites may be visually monitored for the appearance of blue dye. Once the dye appears (about 15 minutes after injection), each subdermal injection site may be excised, weighed, and placed in 1 ml dimethylformamide for 24 hours to extract the dye. The optical density of the dye extracts may then be determined at 620 nm. In general, the injection of 0.1 ml of modulating agent (at a concentration of 0.1 mg/ml) into the backs of rats causes an increase of dye accumulation at the injection sites of at least 50%, as compared to dye accumulation at sites into which PBS has been injected.
This Example illustrates a vasopermeability assay for evaluating the effects of occludin-modulating agents on endothelial cell permeability in vivo.
The ability of cyclic and linear peptides to increase vascular permeability was assessed utilizing the Miles assay (McClure et al., J. Pharmacological& Toxicological Meth. 32:49-521994). The peptides were dissolved in phosphate buffered saline (PBS) at a concentration of 100 μg/ml. Adult rats were given 100 μl subdermal injections of each peptide solution into their shaved backs, followed 15 minutes later by a single 250 μl injection of 1% Evans blue dissolved in PBS into their tail veins. The subdermal injection sites were visually monitored for the appearance of blue dye. Once the dye appeared (15 minutes after injection), each subdermal injection site was excised, weighed, and placed in 1 ml dimethylformamide for 24 hours to extract the dye. The optical density of the dye extracts was determined at 620 nm. The effects of injecting either phosphate buffered saline, phosphate buffered saline containing acetyl-QYLYHYCVVD-NH2 (SEQ ID NO:2) H-QYLYHYCVVD-NH2 (SEQ ID NO:2), or H-QYLYHYCVVD-OH (SEQ ID NO:2) into sites along the shaved back of a rat on the accumulation of Evans blue at the injection sites is shown in FIG. 5.

In experiment [2] the test system is Human aortic endothelial cells (HAEC). The experiment is described as follows: Endothelial cell adhesion assay with occludin and VE-cadherin immunolocalization. Particulars: 1 hour. It is filed as cell-based. An excerpt:
The effect of a modulating agent on endothelial cell adhesion may generally be evaluated using immunolocalization techniques. Human aortic endothelial cells (HAEC) may be cultured on fibronectin-coated coverslips (fibronectinmay be obtained from Sigma, St. Louis, Mo.) according to the procedures of Jaffe et al., J. Clin. Invest. 52:2745-2756, 1973. Briefly, human endothelial cells may be maintained in EGM (endothelial cell growth medium; Clonetics, San Diego, Calif.) and used for experiments at passage 4. Confluent cultures of HAEC may be exposed to either a candidate modulating agent (final concentration 100 μg/ml EGM), or EGM alone for 1 hour. The cells are then be fixed for 30 minutes at 4° C. in 95% ethanol, followed by fixation in acetone for 1 minute at 4° C. (Furuse et al., J. Cell Biol. 123:1777-1788, 1993). After fixation, the cells may be probed with either mouse anti-VE-cadherin antibodies (Hemeris, Sassenage, France; diluted 1:250 in 0.1% dried skim milk powder dissolved in PBS), or rabbit anti-occludin antibodies (Zymed, South San Francisco, Calif.; diluted 1:300 in 0.1% dried skim milk powder dissolved in PBS) for 1 hour at 37° C. The cells may then be washed with 0.1% dried skim milk powder dissolved in PBS (three washes, 5 minutes/wash), and probed with secondary antibodies (donkey anti-mouse Cy3, or donkey anti-rabbit Cy5 diluted 1:250 in 0.1% dried skim milk powder dissolved in PBS; Jackson Immunoresearch Laboratories Inc., Westgrove, Pa.) for 1 hour at 37° C. The cells may then be washed again with in 0.1% dried skim milk powder dissolved in PBS and mounted in a solution composed of 50% glycerol and 50% PBS to which phenylenediamine (Sigma, St. Louis, Mo.) has been added to a final concentration of 1 mg/ml. The sample may then be analyzed using a Bio-Rad MRC 1000 confocal microscope with Laser Sharp software version 2.1T (Bio-Rad, Hercules, Calif.). In general, 0.1 mg/ml of modulating agent results in the appearance of intercellular gaps within the monolayer cultures and a decrease of at least 50% in the surface expression of occludin and VE-cadherin, as compared to monolayer cultures that were not exposed to the modulating agent.
This Example illustrates an endothelial cell adhesion assay for evaluating the effects of occludin-modulating agents on endothelial cell adhesion.
Human aortic endothelial cells (HAEC) were cultured on fibronectin (Sigma, St. Louis, Mo.) according to the procedures of Jaffe et al., J. Clin. Invest. 52:2745-2756, 1973. Cells were maintained in EGM (endothelial cell growth medium; Clonetics, San Diego, Calif.) and used for experiments at passage 4.
HAEC were cultured on fibronectin-coated coverslips. Confluent cultures of HAEC were exposed to linear peptides (final concentration 100 μg/ml EGM), or EGM alone for 1 hour. […]

The mark [3] stands for this setting: HAEC, 100 μg/ml peptide, immunofluorescence, vs untreated cells.

The values that follow come from US6310177A, “Compounds and methods for modulating tissue permeability” (Adherex Technologies, Inc., priority 2000, dated 2001).

Where a SMILES comes first, the peptide text is derived from it. Bridges are numbered along the chain shown (N, C = ends).

In the case of `CC(C)C[C@@H]1NC(=O)[C@@H](N)CSSC[C@@H](C(=O)O)NC(=O)[C@H](Cc2ccc(O)cc2)NC(=O)[C@H](Cc2c[nH]cn2)NC(=O)[C@H](Cc2ccc(O)cc2)NC1=O` [H-CLYHYC-OH] (H-CLYHYC-OH; disulfide 1-6), in experiment [1], the “dye extracted from excised injection sites (optical density of dimethylformamide extracts at 620 nm)” value (“dye extracted” for short) was “more dye was extracted”.

Turning to `CC(=O)N[C@H]1CSSC[C@@H](C(N)=O)NC(=O)[C@H](Cc2ccc(O)cc2)NC(=O)[C@H](Cc2c[nH]cn2)NC(=O)[C@H](Cc2ccc(O)cc2)NC(=O)[C@H](CC(C)C)NC1=O` [acetyl-CLYHYC-NH2] (Ac-CLYHYC-NH2; disulfide 1-6), the “dye extracted” value in experiment [1] is “more dye was extracted from the sites injected with H-CLYHYC-OH”.

Consider “Ac-QYLYHYCVVD-NH2 [acetyl-QYLYHYCVVD-NH2]”, for which, in experiment [1], the “dye extracted” value is reported as “more dye was extracted from the sites injected with H-QYLYHYCVVD-OH” and the “accumulation of Evans blue at the injection sites (visual)” value (“accumulation of Evans blue” below) was “more blue dye has accumulated at the sites where the peptide H-QYLYHYCVVD-OH”.

H-QYLYHYCVVD-NH2 [H-QYLYHYCVVD-NH2]: in experiment [1], the “dye extracted” value is listed as “more dye was extracted from the sites injected with H-QYLYHYCVVD-OH” and the “accumulation of Evans blue” value was “more blue dye has accumulated at the sites where the peptide H-QYLYHYCVVD-OH”.

Regarding H-QYLYHYCVVD-OH [H-QYLYHYCVVD-OH], in experiment [2] (setting [3]), the “surface expression of VE-cadherin” value is recorded as “greatly reduced” and the “surface expression of occludin” value is “greatly reduced”. In addition, the “endothelial cell adhesion (retraction of cells, gaps between cells)” value in experiment [2] (confluent HAEC monolayers, 100 μg/ml peptide in EGM, vs untreated cells, FIG. 4) is “adhesion is decreased between the cells”. The “formation of cobblestone-like monolayers” value in experiment [2] (confluent HAEC, 100 μg/ml peptide, FIG. 4B) is recorded as “do not form cobblestone-like monolayers”. In addition, in experiment [1], the “dye extracted” value is “more dye was extracted” and the “accumulation of Evans blue” value is given as “more blue dye has accumulated”.
